Source: patent publication US20040248171A1, “Cancer monitoring by aberrant promotor methylation of the transcription factor genes PAX5 alpha PAX5 beta, novel loop helix loop protein, novel gene 2, and beta 3 genes” (Lovelace Respiratory Research Institute, priority 2001, published 2004)

Columns and labels:
Format in all cases: cell-based, human
β-actin gene expression = test: RT-PCR analysis for expression of the housekeeping gene β-actin after DAC treatment; details: MCF7, MDA-MB 231, T47D, Calu6 cell lines, 1 μM DAC, 72 h
Method: (§1) Reverse transcription-PCR (RT-PCR) was conducted on cDNA from three breast cancer cell lines (MCF7, MDA-MB 231, and T47D) and one lung cancer cell line (Calu6) to determine the relationship between methylation of the PAX5 α and β genes and transcription. […] Reference is made to FIG. 3A, showing an MSP analysis of breast and lung cancer cell lines. Bisulfite-modified DNA was amplified with stage-2 primers specific for methylated alleles. […] Expression of the PAX5 α and β genes was restored in non-expressing cell lines following DAC treatment. Expression of the β-actin gene was determined as a control for RNA integrity.
(§2) 5-Aza-2′-deoxycytidine Treatment and RT-PCR. Re-expression studies were performed using three breast cancer cell lines (MCF7, MDA-MB-23 1, and T47D) and one lung cancer cell line (Calu6). […] The expression of the PAX5 α and β transcripts were determined by reverse transcription (RT)-PCR using the exon 1α forward primer (5′-[…]-3′) and the exon 1β forward primer (5′-[…]-3′) with an exon 2 reverse primer (5′-[…]-3′). β-actin was also amplified as a control for RNA integrity.
(§3) PCR amplification was performed at 94° C. for 10 min; then 35 cycles of 94° C. for 30 s, 64° C. for 30 s, and 72° C. for 30 s; and a 5-min final extension at 72° C. PCR products were analyzed on a 3% agarose gel containing ethidium bromide and visualized under UV illumination.

PAX5 α gene expression = test: RT-PCR analysis for expression of the PAX5 α gene after DAC treatment; details: for PAX5 α transcript expression: 1 μM DAC, 72 h
Method: as §1
5-Aza-2′-deoxycytidine Treatment and RT-PCR. Re-expression studies were performed using three breast cancer cell lines (MCF7, MDA-MB-23 1, and T47D) and one lung cancer cell line (Calu6). Cell lines were treated for 3 days in culture media with 1 μM DAC (Sigma Chemical Co.). Total RNA was prepared using Trizol (Life Technologies, Inc.), and 3 μg aliquots were reverse-transcribed using the Superscript kit (Life Technologies, Inc.). The expression of the PAX5 α and β transcripts were determined by reverse transcription (RT)-PCR using the exon 1α forward primer (5′-[…]-3′) and the exon 1β forward primer (5′-[…]-3′) with an exon 2 reverse primer (5′-[…]-3′). β-actin was also amplified as a control for RNA integrity.
as §3

PAX5 β gene expression = test: RT-PCR analysis for expression of the PAX5 β gene after DAC treatment
Method: as §1, §2, §3

[1] = non-expressing breast and lung cancer cell lines, 1 μM DAC for 72 h (FIG. 3B)

Nc1ncn([C@H]2C[C@H](O)[C@@H](CO)O2)c(=O)n1 [DAC, 5-Aza-2′-deoxycytidine]
expression of the housekeeping gene β-actin (β-actin gene expression): did not affect
PAX5 α transcript expression (PAX5 α gene expression; Calu6 lung cancer cell line): increased expression
PAX5 α transcript expression (PAX5 α gene expression; MDA-MB231 breast cancer cell line): restored expression
PAX5 α transcript expression (PAX5 α gene expression; T47D breast cancer cell line): restored expression
Expression of the PAX5 α gene (PAX5 α gene expression; [1]): restored
Expression of the PAX5 β gene (PAX5 β gene expression; [1]): restored
PAX5 β transcript expression (PAX5 β gene expression; the other three cell lines (MCF7, MDA-MB 231, Calu6), 1 μM DAC, 72 h): restored expression
